The text below walks through data of patent US6028083A, “Esters of (+)-α-(2,3-dimethoxyphenyl)-1-[2-(4-fluorophenyl) ethyl]-4-piperidinemethanol” (Hoechst Marion Roussel, Inc., priority 1997, dated 2000).

In series [1] the test system is 5HT2A receptor. Kind of series: Antagonism of DOI-induced behaviors in rats. The format is in vivo, Male Sprague-Dawley rats. As to conditions: single i.m. injection in sesame oil, 120 mg/kg equivalent to MDL 100,907, DOI 3.0 mg/kg i.p. The text has this: The compound of the present invention used in this test was (+)-α-(2,3-Dimethyoxyphenyl)-1-[2-(4-fluorophenyl)ethyl]-4-piperidinemethanol decanoate--Example 4 herein.-- The 5-HT2A/2C agonist (±)-DOI HCl (1-(2,5-dimethoxy-4-iodophenyl)-2-aminopropane hydrochloride) induces several quantifiable behaviors in rats. These behaviors include "shakes" (a quick head and body shake, a.k.a. wet dog shakes), "forepaw tapping" (rapid forepaw treading) and "skin-jerks" (paraspinal muscle contractions or dorsal skin-shrugging).
Male Sprague-Dawley rats (180±50 g) were housed seven per cage and allowed 1 week to acclimate to the vivarium. Food and water were freely available. The temperature and light cycle (12 h on-12 h off)were automatically maintained. Individual rats were tested once. Each testing group contained seven animals. Experiments took place in the vivarium room where the animals were housed.
Vehicle control animals were injected with sesame oil alone. (±)-DOI HCl (3.0 mg/kg, 1 mL/kg body weight) was dissolved in distilled water with the aid an ultrasonic bath, and injected intraperitoneally on appropriate testing days.
(+)-α-(2,3-Dimethyoxyphenyl)-1-[2-(4-fluorophenyl)ethyl]-4-piperidinementhanol decanoate-treated rats were tested for antagonism of DOI-induced behaviors 1, 5, 7, 14, 21, 28 and 40 days after the single (+)-α-(2,3-Dimethyoxyphenyl)-1-[2-(4-fluorophenyl)ethyl]-4-piperidinementhanol decanoate intramuscular injection. Each rat was tested once. Immediately after DOI injection rats were placed under inverted clear plastic boxes (28 L×25 W×25 H cm) which were arranged on top of clean absorbent paper. Rats were continuously watched by trained observers (blind to treatment) for 30 minutes for the occurrence of DOI-induced behaviors (shakes, skin-jerks and forepaw tapping bouts) and then returned to their home cages. Rats were later used for pharmacokinetic studies. The frequencies of DOI-induced behaviors were recorded and then summed to provide a single behavioral score for each animal.
The mean and standard error of the behavioral scores of each group was determined. […]

A further series is described as follows: in vivo. To be noted: rat, im, 120 mg/kg. More on the design: species or system male Wistar rats. As to the method:
Rats are anesthetized with a lethal i.p. dose of nembutal and blood collected at 3 and 6 hours, and various days post-dose (n=5 for each timepoint) in heparinized vacutainers. Blood samples are centrifuged for 30 minutes at 5 C and at approximately 2700 rpm. Plasma is removed and stored at -20° C. until assay. The plasma samples are analyzed by an appropriate HPLC method. Brains will also be collected at the above timepoints and stored at -80° C. until analyzed by the appropriate HPLC method.

Series [2] in a line: Chronic Mild Stress Model of Depression (CMS), consumption of 1% sucrose solution. The format is in vivo, Male Wistar rats. The text has this:
CMS uses mild stressors, such as food and water deprivation, small temperature changes, changes of cage mates, etc. Over a period of weeks of exposure to the mild stressors, the animals gradually reduce their consumption of a highly preferred sucrose solution which persists (in untreated animals) for several weeks following the cessation of stress. This decreased sensitivity to reward (the sucrose solution) reflects anhedonia, a symptom of a Major Depressive Episode (see for example, Behavioral Pharmacol.5: Suppl. 1, p. 86 (1994) where lithium, carbamazepine and ketoconazole were evaluated in CMS; Psychopharmacology 93:358-364 (1987) where a tricyclic antidepressant was evaluated in CMS; Behavioral Pharmacology:5:344-350 (1994) where a catechol-O-methyl transferase inhibitor was evaluated in CMS).
Male Wistar rats were brought into the laboratory two months before the start of the experiment at which time they weighed approximately 300 grams. Except as described below, the animals were singly housed, with food a water freely available, and maintained on a 12 hour light/dark cycle (lights on at 8 AM) at a temperature of 22±° C.
The animals were first trained to consume a 1% sucrose solution; training consisted of eight 1 hour baseline tests in which sucrose was presented, in the home cage, following 14 hours food and water deprivation; intake was measured by weighing pre-weighed bottles containing the sucrose solution at the end of the test. Subsequently, sucrose consumption was monitored, under similar conditions, at weekly intervals throughout the whole experiment.
On the basis of their sucrose intakes in the final baseline test, the animals were divided into two matched groups. One group of animals was subjected to a chronic mild stress procedure for a period of 9 consecutive weeks. Each week of stress regime consisted of: two periods of food or water deprivation (12 and 14 hour), two periods of 45 degree cage tilt (12 and 14 h), two periods of intermittent overnight illumination (lights on and off every 2 hours), two 14 hour periods of soiled cage (200 ml water in sawdust bedding), two 14 hour periods of paired housing, two 14 hour periods of low intensity stroboscopic illumination (150 flashes/min). Stressors were applied continuously throughout the day and night, and scheduled randomly. […] They were deprived of food and water for the 14 hours preceding each sucrose test, but otherwise food and water were freely available in the home cage. […] All drug injections were in a volume of 1 ml/kg body weight. Drugs were administered at 10 AM and sucrose tests were carried out 24 hours following the last drug treatment. After five weeks, the treatments were terminated and after one week of withdrawal a final sucrose test was carried out. Stress was continued throughout the period of treatment and withdrawal.
Results were analyzed by multiple analysis of variance, followed by Fisher's LSD test for post hoc comparisons of means.

For series [3], the system named is 5HT2A receptor. To be noted: cited from earlier work.
Series [4] concerns dopamine efflux in the medial prefrontal cortex. To be noted: European Journal of Pharmacology 273: 273-279 (1995); cited from earlier work.
In series [5] the test system is PPI (prepulse inhibition). As to conditions: Psychopharmacology 124: 107-116 (1996); cited from earlier work.
A further series has as its system platelets. As to conditions: U.S. Pat. No. 5,561,144, cited from earlier work.
The next series concerns myocardial tissue. As to conditions: no source or data given; cited from earlier work.
Series [6] has as its system 5HT2A receptor. To be noted: literature (Pranzatelli 1990; Wettstein et al. 1996); cited from earlier work.
Setting [7] is: MDL 100,907 0.002, 0.02 and 0.2 mg/kg orally.
[8] abbreviates: MDL 100,907 0.002, 0.02 and 0.2 mg/kg orally, NS.
Where [9] appears, read: MDL 100,907 0.02 and 0.2 mg/kg orally.
Where [10] appears, read: imipramine 10 mg/kg ip daily, five weeks.

Each structure is given as a SMILES string.

Take `CCCCCCCCCC(=O)O[C@@H](c1cccc(OC)c1OC)C1CCN(CCc2ccc(F)cc2)CC1` [Example 4, (+)-α-(2,3-Dimethyoxyphenyl)-1-[2-(4-fluorophenyl)ethyl]-4-piperidinementhanol decanoate]: the “antagonism of DOI-induced behavior at day 40” value with 5HT2A receptor [1] was “no longer significant”. The “duration of significant antagonism of DOI-induced behavior” value in the series with 5HT2A receptor [1] (p<=0.05) is 28 days. For the same compound, the “antagonism of DOI-induced behavior” value with 5HT2A receptor [1] (through day 28) is “Significantly antagonized DOI-induced behavior”. In addition, in “in vivo”, the concentration at 3 h was determined as 54.2 ± 13.3 ng/mL, the concentration at 6 h came out at 53.8 ± 17.1 ng/mL, the concentration at 24 h worked out at 54.1 ± 18 ng/mL and the concentration at 48 h was 21.6 ± 7.39 ng/mL. Further, in the series “in vivo”, the concentration at 72 h came out at 39 ± 5.64 ng/mL, the concentration at 96 h was determined as 52 ± 12.9 ng/mL, the concentration at 144 h stood at 41.9 ± 14.6 ng/mL and the concentration at 192 h is 28.7 ± 9.16 ng/mL. In the series “in vivo”, the concentration at 288 h stood at 21 ± 12.8 ng/mL, the concentration at 360 h came to 52.4 ± 15.2 ng/mL, the concentration at 456 h is 40.1 ± 8.44 ng/mL and the concentration at 528 h is 46.3 ± 9.31 ng/mL. In “in vivo”, this compound came in with a concentration at 624 h of 38.9 ± 9.35 ng/mL, a concentration at 696 h of 43.7 ± 10.8 ng/mL and a concentration at 984 h of 24.1 ± 9.15 ng/mL.
Regarding `COc1cccc([C@H](O)C2CCN(CCc3ccc(F)cc3)CC2)c1OC` [MDL 100,907, (+)-α-(2,3-dimethoxyphenyl)-1-[2-(4-fluorophenyl)ethyl]-4-piperidinemethanol], the “effect on sucrose intake throughout the whole treatment period” value in series [2] (MDL 100,907 0.002 mg/kg orally) was “no significant effect”. Also, the “sucrose intake in stressed animals vs Week 0” value in series [2] (MDL 100,907 0.02 mg/kg (after two weeks) and 0.2 mg/kg (after three weeks) orally) is “significantly increased from initial scores”. For the same compound, in series [2] (setting [7]), the “sucrose intake in stressed animals, Treatment effect F(3,168)” value worked out at 22.567; the “sucrose intake in stressed animals, Treatment effect p” value was below 0.001; the “sucrose intake in stressed animals, Treatment x Weeks interaction F(15,158)” value amounted to 1.559; the “sucrose intake in stressed animals, Treatment x Weeks interaction p” value is given as 0.05. The “effect on sucrose intake in control animals” value in [2] (MDL 100,907 0.002, 0.02 and 0.2 mg/kg orally daily, five weeks) is listed as “no significant effect”. For the same compound, in [2] (setting [8]), the “sucrose intake in control animals, Treatment effect F(3,168)” value is recorded as 0.821 and the “sucrose intake in control animals, Treatment x Weeks interaction F(15,168)” value is recorded as 0.499. In addition, in series [2] (setting [9]), the “sucrose intake of stressed animals vs vehicle-treated controls at Week 5” value was “comparable to that of vehicle-treated controls” and the “sucrose intake of stressed animals vs vehicle-treated stressed animals at Week 5” value was “significantly higher than that of vehicle-treated stressed animals”. The “sucrose intake one week after withdrawal” value in series [2] (MDL 100,907 all doses, control and stressed animals) is given as “not significantly changed”. Besides, in series [2] (MDL 100,907 orally daily, five weeks), the “effect on CMS-induced deficit in sucrose intake in stressed animals” value is “gradually reversed the CMS-induced deficit in sucrose intake”. The “5HT2A receptor antagonist potency” value with 5HT2A receptor [3] is on record as “potent 5HT2A receptor antagonist”. Besides, in series [4], the “influence on dopamine efflux in the medial prefrontal cortex” value is listed as “tonic inhibitory influence on dopamine efflux”. Moreover, the “effect on disrupted PPI” value in [5] is recorded as “restore disrupted PPI”. Besides, in the series with platelets, the “effect on rate at which platelets aggregate” value is recorded as “decreases the rate at which platelets aggregate”. The “prevention of acute thrombosis” value with platelets (especially of the coronary arteries) is on record as “effective in the prevention of acute thrombosis”. Further, in the series on myocardial tissue, the “anti-arrhythmic class (Vaughan Williams)” value was “Class III anti-arrhythmic activity” and the “effect on action potential of myocardial tissue” value is “increases the duration of the action potential of myocardial tissue”.
Regarding `Cc1nc2sccn2c(=O)c1CCN1CCC(=C(c2ccc(F)cc2)c2ccc(F)cc2)CC1` [ritanserin], in the series with 5HT2A receptor [6], the “block of the behavioral effects of DOI” value is recorded as “dose-dependently block the behavioral effects of DOI”.
As to `CN(C)CCCN1c2ccccc2CCc2ccccc21` [Imipramine], in series [2] (imipramine 10 mg/kg ip daily), the “sucrose intake in stressed animals, F(1,84)” value is given as 16.776 and the “sucrose intake in stressed animals, p (treatment)” value is recorded as below 0.001. Further, in series [2] (imipramine 10 mg/kg ip daily, after five weeks of treatment), the “sucrose intake of drug-treated stressed animals vs drug- and saline-treated controls” value is given as “no significant differences”. Further, in [2] (setting [10]), the “effect on sucrose intake in control animals” value was “no significant effect” and the “effect on sucrose intake in stressed animals” value was “gradual increase of sucrose intake”. Besides, the “sucrose intake in stressed animals after withdrawal” value in series [2] (imipramine 10 mg/kg ip daily, one week after withdrawal) is reported as “maintained at similar level”. Also, the “sucrose intake in control animals, F(1,84)” value in [2] (imipramine 10 mg/kg ip daily, NS) stood at 0.364.
